Three molecules from paper PMC3025571 (Nucleic Acids Research, 2010) can be followed below.

Molecules are shown by their SMILES. pIC50: −log10 of the molar value. Read-outs that look alike come from different tables or passages of the source.

The target of this experiment is human FEN1 (Homo sapiens, UniProt P39748). Put plainly: Kinetic fluorogenic. The format is biochemical.
Sequence of human FEN1 (P39748 whole entry): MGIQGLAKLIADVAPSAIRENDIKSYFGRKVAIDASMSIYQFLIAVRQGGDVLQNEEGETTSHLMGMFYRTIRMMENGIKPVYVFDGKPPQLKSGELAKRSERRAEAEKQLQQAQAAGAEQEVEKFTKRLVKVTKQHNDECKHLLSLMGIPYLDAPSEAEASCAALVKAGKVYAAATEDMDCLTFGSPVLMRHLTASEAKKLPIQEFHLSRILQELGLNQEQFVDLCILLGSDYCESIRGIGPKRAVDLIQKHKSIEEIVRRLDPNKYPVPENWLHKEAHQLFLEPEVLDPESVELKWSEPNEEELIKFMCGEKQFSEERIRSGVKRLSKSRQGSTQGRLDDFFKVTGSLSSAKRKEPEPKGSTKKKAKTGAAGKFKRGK

As to `C[S+](C)[O-]` [DMSO, Dimethyl sulfoxide], the “inhibition of FEN1” value (concentrations up to 0.67%, data not shown, assay format not specified) is “not inhibit”.

By pIC50 is commonly meant the IC50 on a negative log10 scale, so that one unit is a factor of ten. Where the note is “average IC50, average of the fluorogenic and AlphaScreen assays”, `O=C(O)C1=CC(=C(c2ccc(O)c(C(=O)O)c2)c2ccc(O)c(C(=O)O)c2)C=CC1=O` [ATA, aurintricarboxylic acid] had a negative logarithm of the IC50 (pIC50) of 6.23.

As for `O=C(O)c1cc[c]([Sb](=[O])([OH])[OH])cc1[N+](=O)[O-]` [NSC-13755], under “read-out: average IC50, average of the fluorogenic and AlphaScreen assays”, the pIC50 is 6.03.
